According to ChEMBL document CHEMBL1201862, “PubChem BioAssay data set” (2004):
Active and inactive are the calls of the source.

Columns and labels:
[1] = biological target: T1, Ubiquitin-conjugating enzyme E2 N (Homo sapiens, UniProt P61088); format: functional;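 note: Dose-response confirmation in a TR-FRET assay detecting UBC13-driven polyubiquitin chain formation, inhibition measured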
T1 sequence (P61088 whole entry): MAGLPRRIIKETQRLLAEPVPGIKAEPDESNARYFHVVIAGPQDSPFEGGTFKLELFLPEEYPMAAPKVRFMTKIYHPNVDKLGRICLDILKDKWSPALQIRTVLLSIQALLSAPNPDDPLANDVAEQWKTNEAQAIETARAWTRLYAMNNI

[2] = biological target: T2, Corticotropin-releasing factor receptor 2/Corticotropin-releasing factor-binding protein (Homo sapiens, UniProt P24387+Q13324); test: activators of CRF receptor 2 with binding protein – uHTS hits, confirmation (AID 602473); format: functional; conditions: read-out: EC50_Mean
T2 sequence (Q13324 whole entry): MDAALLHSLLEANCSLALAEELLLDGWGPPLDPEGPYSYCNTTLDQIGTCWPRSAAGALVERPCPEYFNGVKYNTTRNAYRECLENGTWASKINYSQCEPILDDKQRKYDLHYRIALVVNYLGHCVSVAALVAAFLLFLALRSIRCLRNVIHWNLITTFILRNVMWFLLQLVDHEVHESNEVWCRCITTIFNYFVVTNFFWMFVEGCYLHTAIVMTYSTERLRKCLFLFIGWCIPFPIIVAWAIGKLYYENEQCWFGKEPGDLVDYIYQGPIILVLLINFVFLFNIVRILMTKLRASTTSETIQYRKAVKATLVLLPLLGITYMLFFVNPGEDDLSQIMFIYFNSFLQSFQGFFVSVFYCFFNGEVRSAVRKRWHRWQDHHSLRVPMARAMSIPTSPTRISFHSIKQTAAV
T2 sequence (P24387 whole entry): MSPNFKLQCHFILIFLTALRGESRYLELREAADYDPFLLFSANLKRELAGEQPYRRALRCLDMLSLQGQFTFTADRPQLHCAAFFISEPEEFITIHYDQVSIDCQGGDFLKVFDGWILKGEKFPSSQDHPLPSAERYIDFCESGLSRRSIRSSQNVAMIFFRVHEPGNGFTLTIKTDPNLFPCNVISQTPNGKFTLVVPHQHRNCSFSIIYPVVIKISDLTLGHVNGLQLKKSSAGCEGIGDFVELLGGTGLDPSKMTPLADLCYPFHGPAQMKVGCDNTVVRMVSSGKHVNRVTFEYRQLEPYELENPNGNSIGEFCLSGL

Large T antigen = Large T antigen (Simian virus 40, UniProt P03070); format: functional, Betapolyomavirus macacae;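 note: Confirmatory-stage PubChem screen for compounds that inhibit SV40 T antigen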
Sequence of Large T antigen (P03070 whole entry): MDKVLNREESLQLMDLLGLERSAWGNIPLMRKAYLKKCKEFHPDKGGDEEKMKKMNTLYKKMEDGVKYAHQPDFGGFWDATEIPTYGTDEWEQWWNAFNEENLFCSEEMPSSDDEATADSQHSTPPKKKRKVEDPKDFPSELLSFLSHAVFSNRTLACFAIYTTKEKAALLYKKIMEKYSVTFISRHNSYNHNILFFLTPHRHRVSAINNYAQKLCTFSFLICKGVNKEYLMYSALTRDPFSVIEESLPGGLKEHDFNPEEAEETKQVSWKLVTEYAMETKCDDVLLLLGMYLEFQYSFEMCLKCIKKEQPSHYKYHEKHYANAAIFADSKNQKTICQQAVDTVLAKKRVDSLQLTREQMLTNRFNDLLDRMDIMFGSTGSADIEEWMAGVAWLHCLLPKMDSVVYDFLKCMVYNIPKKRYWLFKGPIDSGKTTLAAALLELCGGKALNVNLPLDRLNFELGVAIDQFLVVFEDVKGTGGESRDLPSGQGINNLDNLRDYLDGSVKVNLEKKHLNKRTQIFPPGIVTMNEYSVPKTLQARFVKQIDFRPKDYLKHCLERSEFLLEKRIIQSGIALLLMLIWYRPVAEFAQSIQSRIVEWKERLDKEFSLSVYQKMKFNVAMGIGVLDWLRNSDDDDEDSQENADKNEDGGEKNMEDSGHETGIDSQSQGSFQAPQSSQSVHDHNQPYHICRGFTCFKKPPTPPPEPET

[3] = microbe, parasite or virus in culture; format: functional; conditions: Mycobacterium tuberculosis
[4] = Luminescence Cell-Based Dose Confirmation HTS to Identify Activators of 5'UTR Stem-Loop Driven Alpha-Synuclein mRNA Translation in H4 Neuroglioblastoma Cells. [Related pubchem assays: 1829 (Project Summary), 1814 (Primary HTS)]; format: functional
[5] = Luminescence Cell-Based Dose Response HTS to Identify Activators of Luciferase Translation or Activity in H4 […] Cells. [Related pubchem assays: 1829 (Project Summary), 1814 (Primary HTS)]; format: functional
[6] = test system: Streptococcus sp. 'group A'; test: growth inhibition of control SK(-) GAS strain, dose response, counter-screen for streptokinase expression inhibitor project, luminescence, kanamycin, BacTiterGlo, confirmation (AID 1900); format: functional, organism-based
H4 = test: Luminescence Cell-Based Dose Response HTS to Identify Activators of 5'UTR Stem-Loop Driven Prion Protein mRNA Translation in H4 Neuroglioblastoma Cells. [Related pubchem assays: 1829 (Project Summary), 1814 (Primary HTS)]; format: functional; conditions: Homo sapiens
Streptokinase A = biological target: T3, Streptokinase A (Streptococcus pyogenes serotype M1, UniProt P10520); test: S. pyogenes streptokinase expression inhibitors, potency, dose response, plasminogen activation absorbance, OD405 (AID 1914); format: functional, Streptococcus pyogenes M1 GAS;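 note: secreted streptokinase activity via plasminogen activation per viability signal from cell pellet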
T3 sequence (P10520 whole entry): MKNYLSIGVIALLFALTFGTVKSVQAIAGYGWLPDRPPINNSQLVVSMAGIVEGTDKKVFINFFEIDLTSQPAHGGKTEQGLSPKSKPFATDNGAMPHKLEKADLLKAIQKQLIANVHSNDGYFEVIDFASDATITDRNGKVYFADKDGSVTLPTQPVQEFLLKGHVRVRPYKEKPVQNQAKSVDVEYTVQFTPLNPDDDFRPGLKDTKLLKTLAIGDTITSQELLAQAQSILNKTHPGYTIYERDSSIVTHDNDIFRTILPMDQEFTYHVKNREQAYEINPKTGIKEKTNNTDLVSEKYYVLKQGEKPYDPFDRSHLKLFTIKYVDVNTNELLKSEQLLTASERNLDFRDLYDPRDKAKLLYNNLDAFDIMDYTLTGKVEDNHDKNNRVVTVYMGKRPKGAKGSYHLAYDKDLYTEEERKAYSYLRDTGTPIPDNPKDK

Streptococcus = test: Group A Streptococcus viability loss, dose response, counter-screen for streptokinase expression inhibitor project, luminescence, BacTiterGlo (AID 1915); format: functional, organism-based;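 note: potency for reduction of bacterial viability or growth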
Vero [7] = test: cells; format: functional, cell-based; conditions: Chlorocebus sabaeus
Vero [8] = test: cells; format: functional; conditions: Chlorocebus sabaeus
Protein skinhead-1 = biological target: T4, Protein skinhead-1 (Caenorhabditis elegans, UniProt P34707); format: functional
T4 sequence (P34707 whole entry): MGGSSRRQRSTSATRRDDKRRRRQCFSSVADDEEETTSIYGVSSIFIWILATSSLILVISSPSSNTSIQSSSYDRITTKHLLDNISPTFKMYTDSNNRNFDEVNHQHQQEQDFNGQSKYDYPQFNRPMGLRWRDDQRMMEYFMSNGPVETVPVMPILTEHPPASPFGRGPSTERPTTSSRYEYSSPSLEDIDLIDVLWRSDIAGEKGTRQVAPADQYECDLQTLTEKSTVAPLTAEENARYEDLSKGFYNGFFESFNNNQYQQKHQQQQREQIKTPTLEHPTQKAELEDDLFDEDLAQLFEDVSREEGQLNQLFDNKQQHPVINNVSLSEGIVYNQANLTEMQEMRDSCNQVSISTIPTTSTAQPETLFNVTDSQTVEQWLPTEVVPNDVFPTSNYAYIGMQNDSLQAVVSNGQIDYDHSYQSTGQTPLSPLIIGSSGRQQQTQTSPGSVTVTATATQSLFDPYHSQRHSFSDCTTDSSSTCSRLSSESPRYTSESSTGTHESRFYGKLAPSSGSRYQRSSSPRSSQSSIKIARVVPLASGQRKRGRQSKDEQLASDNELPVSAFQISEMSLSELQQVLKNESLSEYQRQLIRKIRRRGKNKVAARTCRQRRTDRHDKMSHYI

Leucine aminopeptidase = biological target: T5, Leucine aminopeptidase (Plasmodium falciparum 3D7, UniProt Q8IL11); test: P. falciparum M17LAP inhibitors, primary screen, biochemical, fluorogenic H-Leu-NHMec substrate, 1536-well (AID 1619); format: functional
T5 sequence (Q8IL11 whole entry): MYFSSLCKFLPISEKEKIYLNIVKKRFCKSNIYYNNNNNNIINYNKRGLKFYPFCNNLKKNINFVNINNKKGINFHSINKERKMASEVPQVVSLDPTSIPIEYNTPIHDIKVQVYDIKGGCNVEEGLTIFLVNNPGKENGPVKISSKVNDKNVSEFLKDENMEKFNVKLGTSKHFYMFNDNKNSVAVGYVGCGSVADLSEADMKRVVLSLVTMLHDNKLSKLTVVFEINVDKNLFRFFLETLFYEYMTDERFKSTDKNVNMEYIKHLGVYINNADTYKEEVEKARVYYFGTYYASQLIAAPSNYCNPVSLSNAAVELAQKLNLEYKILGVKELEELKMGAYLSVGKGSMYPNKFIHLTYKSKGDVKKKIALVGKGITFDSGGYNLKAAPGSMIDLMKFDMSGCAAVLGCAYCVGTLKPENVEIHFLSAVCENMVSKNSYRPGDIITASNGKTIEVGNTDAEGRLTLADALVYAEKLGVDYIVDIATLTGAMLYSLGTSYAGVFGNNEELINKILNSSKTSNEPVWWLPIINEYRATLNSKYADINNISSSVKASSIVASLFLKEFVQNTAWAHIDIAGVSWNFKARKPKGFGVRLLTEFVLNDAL

Genome polyprotein = Genome polyprotein (dengue virus type 2, UniProt P29990); test: Dengue-2 NS5 methyltransferase inhibitors, primary screen, biochemical, confirmation dose response (AID 588689); format: functional
Sequence of Genome polyprotein (P29990 2492-3391 limits assumed): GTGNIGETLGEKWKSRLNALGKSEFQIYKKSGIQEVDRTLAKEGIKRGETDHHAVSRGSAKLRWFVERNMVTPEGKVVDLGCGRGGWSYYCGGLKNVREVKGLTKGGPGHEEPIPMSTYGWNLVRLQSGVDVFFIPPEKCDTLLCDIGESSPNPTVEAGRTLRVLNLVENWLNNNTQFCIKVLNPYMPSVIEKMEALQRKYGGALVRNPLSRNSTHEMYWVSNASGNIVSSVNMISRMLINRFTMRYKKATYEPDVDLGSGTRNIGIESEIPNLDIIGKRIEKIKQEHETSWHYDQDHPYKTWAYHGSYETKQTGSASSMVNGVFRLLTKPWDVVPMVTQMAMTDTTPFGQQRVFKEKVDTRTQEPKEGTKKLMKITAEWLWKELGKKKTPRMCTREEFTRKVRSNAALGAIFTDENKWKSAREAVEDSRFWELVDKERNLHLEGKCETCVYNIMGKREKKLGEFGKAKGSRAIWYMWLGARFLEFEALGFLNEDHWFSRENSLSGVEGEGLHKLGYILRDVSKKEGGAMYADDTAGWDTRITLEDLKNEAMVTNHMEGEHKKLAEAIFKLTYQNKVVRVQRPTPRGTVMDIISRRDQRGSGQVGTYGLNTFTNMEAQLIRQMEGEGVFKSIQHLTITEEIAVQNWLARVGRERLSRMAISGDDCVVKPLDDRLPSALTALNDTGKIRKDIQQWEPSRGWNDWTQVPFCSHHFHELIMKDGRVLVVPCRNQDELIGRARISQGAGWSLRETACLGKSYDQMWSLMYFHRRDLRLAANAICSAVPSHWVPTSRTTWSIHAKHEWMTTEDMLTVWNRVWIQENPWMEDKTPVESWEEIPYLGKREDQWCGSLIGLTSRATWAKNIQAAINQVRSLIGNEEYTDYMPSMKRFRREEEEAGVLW

[9] = biological target: T2, Corticotropin-releasing factor receptor 2/Corticotropin-releasing factor-binding protein; test: Dose Response confirmation of uHTS hits for small molecule antagonists of the CRF-binding protein and CRF-R2 receptor complex.; format: functional; conditions: read-out: IC50_Mean
[10] = biological target: Induced myeloid leukemia cell differentiation protein Mcl-1 (Homo sapiens, UniProt Q07820); format: functional
Sequence of Induced myeloid leukemia cell differentiation protein Mcl-1 (Q07820 whole entry): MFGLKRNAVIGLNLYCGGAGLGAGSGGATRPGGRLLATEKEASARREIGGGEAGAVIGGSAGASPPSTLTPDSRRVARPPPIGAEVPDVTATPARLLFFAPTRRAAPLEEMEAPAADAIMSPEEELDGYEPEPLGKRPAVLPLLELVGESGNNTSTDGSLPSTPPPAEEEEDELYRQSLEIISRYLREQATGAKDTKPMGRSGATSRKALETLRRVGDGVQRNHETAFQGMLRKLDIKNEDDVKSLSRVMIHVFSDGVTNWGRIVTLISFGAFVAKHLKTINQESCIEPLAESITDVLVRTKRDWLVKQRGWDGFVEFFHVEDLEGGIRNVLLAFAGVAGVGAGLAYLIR

O=C1Cc2ccccc2Sc2ccc(O)cc21
IC50 [1]: > 20 µM (inactive)
EC50 [2]: > 53 µM (inactive)

Oc1cc2c(cc1O)[C@H]1c3ccccc3CN[C@@H]1CC2
IC50 (Large T antigen): 80 µM (active)

c1ccc2c(c1)CCN(c1nc(CN3CCOCC3)nc3sc4c(c13)CCCC4)C2
CC50 [3]: > 40 µM (active)

CC1CC(C)CN(Cc2nc(N)nc(Nc3ccc4ccccc4c3)n2)C1 (centres undefined)
EC50 [4]: > 60 µM (not active)
EC50 [5]: 12.9 µM (active)
EC50 [6]: > 150 µM (not active)
EC50 (H4): > 120 µM (not active)
EC50 (Streptokinase A): > 150 µM (not active)
EC50 (Streptococcus): > 150 µM (not active)
IC50 (Vero [7]): > 25 µM (active)
CC50 (Vero [8]): 14.1 µM (active)

COc1ccc(/C=C/C(=O)c2ccc(O)cc2)cc1CN1CCOCC1
IC50 (Vero [7]): 8.49 µM (active)
CC50 (Vero [8]): > 25 µM (active)

O=C(CSc1nnnn1C1CCCCC1)Nc1nc2c(s1)CCCC2
CC50 [3]: > 40 µM (active)

O=C(Nc1ccc(Cl)c(Cl)c1)c1ccccc1
IC50 (Protein skinhead-1): > 100 µM (inactive)

O=C(c1cnn(C(=O)c2ccccc2)c1)c1ccccc1O
IC50 (Leucine aminopeptidase): 72.6 µM (active)

CCCOC(=O)c1c(NC(=O)C2C3C=CC(C3)C2C(=O)O)sc2c1CCC(C)C2 (centres undefined)
IC50 (Genome polyprotein): 50.3 µM (active)

Cc1ccc(NC(=O)CSc2nnc[nH]2)cc1
IC50 (Leucine aminopeptidase): 34 µM (active)

Cc1c(/C=N/NC(=O)c2cccs2)c2ccccc2n1Cc1ccccc1Cl
IC50 (Vero [7]): > 25 µM (active)
CC50 (Vero [8]): > 25 µM (active)

COc1cc(C(CCN2CCCCC2)c2c(OC)cc(OC)c3c(-c4ccccc4)cc(=O)oc23)cc(OC)c1OC (centres undefined)
IC50 [1]: > 20 µM (inactive)
CC50 (Vero [8]): > 25 µM (active)

O=C(CSc1ccccc1)NN1C(=O)c2ccccc2C1=O
IC50 (Leucine aminopeptidase): 54.4 µM (active)
IC50 [9]: > 47.1 µM (inactive)
EC50 [2]: > 53 µM (inactive)

O=C(/C=C\c1ccco1)c1ccc(NC(=O)c2ccco2)cc1
IC50 [10]: 2.78 µM (active)

Nc1ccc2c(c1)sc1ccccc12
IC50 (Protein skinhead-1): 29 µM (active)

CC1=NN(c2ccccc2)C(=O)/C1=C/c1ccc(-c2ccc(C)c(C(=O)O)c2)o1
IC50 (Large T antigen): 35 µM (active)

CC1=C(C#N)C(=O)N(C2CCS(=O)(=O)C2)C(=O)/C1=C\c1ccc(C)o1 (centres undefined)
IC50 (Large T antigen): 47.9 µM (active)
IC50 [10]: 1.6 µM (active)

Nc1ccc(OCCCc2c(N)nc(N)nc2N)cc1
IC50 (Large T antigen): 7.73 µM (active)
IC50 [1]: > 20 µM (inactive)

COc1ccc(OC)c(NC(=O)[C@H]2CC=CC[C@H]2C(=O)O)c1
IC50 (Leucine aminopeptidase): 18.5 µM (active)
